Assays:
α1 GlyR = molecular target: T1, α1 GlyR (Rattus norvegicus, UniProt P07727); settings: homomeric α1GlyRs; cited from earlier work
T1 construct: expressed in transfected cells; host or cells: HEK293 (ATCC CRL-1573)
T1 sequence (P07727 29-457): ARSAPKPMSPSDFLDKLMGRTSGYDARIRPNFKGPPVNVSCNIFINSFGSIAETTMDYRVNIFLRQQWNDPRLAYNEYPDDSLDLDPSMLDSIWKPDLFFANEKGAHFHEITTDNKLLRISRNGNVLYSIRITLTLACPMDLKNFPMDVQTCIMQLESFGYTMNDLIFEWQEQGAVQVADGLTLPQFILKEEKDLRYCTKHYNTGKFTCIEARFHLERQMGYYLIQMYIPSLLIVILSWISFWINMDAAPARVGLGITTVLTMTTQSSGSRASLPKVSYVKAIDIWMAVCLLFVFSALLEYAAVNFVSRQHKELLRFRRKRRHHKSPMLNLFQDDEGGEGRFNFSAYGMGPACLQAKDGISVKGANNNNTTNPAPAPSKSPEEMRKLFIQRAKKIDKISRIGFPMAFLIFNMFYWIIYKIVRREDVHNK

α2 GlyR = molecular target: T2, α2 GlyR (Rattus norvegicus, UniProt P22771); settings: cited from earlier work
T2 construct: The cells were transfected with plasmids encoding the following proteins; expressed in transfected cells; host or cells: HEK293 (ATCC CRL-1573)
T2 sequence (P22771 28-452): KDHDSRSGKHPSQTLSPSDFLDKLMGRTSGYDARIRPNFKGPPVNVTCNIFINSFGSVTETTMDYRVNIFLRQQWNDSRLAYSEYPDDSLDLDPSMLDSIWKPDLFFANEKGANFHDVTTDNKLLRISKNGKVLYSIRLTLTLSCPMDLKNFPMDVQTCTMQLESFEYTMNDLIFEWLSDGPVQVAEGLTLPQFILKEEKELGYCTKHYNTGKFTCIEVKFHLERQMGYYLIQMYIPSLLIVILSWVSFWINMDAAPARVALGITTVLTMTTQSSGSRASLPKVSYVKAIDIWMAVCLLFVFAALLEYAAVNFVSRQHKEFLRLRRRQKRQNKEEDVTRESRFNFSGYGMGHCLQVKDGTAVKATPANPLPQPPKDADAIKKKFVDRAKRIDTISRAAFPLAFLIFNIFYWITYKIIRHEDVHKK

α3 GlyR = molecular target: T3, α3 GlyR (Rattus norvegicus, UniProt P24524); settings: cited from earlier work
T3 construct: expressed in transfected cells; host or cells: HEK293 (ATCC CRL-1573)
T3 sequence (P24524 34-464): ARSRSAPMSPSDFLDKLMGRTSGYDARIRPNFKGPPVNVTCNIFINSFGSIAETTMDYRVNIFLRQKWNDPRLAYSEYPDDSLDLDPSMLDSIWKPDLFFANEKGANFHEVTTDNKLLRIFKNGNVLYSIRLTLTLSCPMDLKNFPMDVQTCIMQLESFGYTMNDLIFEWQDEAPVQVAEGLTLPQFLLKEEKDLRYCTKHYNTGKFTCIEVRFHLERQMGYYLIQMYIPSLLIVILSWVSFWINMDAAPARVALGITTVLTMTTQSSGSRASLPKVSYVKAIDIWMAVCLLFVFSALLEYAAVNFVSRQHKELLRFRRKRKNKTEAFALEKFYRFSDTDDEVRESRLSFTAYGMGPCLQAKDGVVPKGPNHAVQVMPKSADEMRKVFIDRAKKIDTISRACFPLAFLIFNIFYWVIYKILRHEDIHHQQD

Spinal GlyRs = settings: cited from earlier work
[1] = tested on: recombinant and native GABAARs; settings: cited from earlier work
native GlyRs = settings: cited from earlier work
α1β GlyR = molecular target: T4, α1β GlyR (Rattus norvegicus, UniProt P07727+P20781); assay: cell-based
T4 construct: The cells were transfected with plasmids encoding the following proteins; expressed in transfected cells; host or cells: HEK293 (ATCC CRL-1573)
T4 sequence (P20781 23-496, one chain of several): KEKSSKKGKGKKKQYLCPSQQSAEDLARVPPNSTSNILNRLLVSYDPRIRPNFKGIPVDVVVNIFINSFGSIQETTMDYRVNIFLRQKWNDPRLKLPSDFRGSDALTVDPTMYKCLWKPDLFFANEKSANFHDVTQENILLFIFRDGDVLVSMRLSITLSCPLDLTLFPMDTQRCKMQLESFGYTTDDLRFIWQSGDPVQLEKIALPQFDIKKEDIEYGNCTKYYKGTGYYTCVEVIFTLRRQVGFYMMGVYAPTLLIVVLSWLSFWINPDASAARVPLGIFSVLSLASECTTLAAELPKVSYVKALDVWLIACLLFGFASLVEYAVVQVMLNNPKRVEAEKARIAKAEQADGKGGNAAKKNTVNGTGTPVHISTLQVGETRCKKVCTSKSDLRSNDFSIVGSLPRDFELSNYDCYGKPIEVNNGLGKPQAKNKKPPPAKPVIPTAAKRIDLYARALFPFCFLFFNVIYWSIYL
Method: The cells were transfected with plasmids encoding the following proteins: (i). rat GlyR α (1, 2, 3) subunits alone or combined with rat β subunits (Uniprot Accession Numbers: Q546L7, P22771, P20236, P20781); and (ii). rat GABAAR α1 combined with rat β2 and γ2 subunits (Uniprot Accession Numbers: P62813, P63138, P18508). The EGFP expression was used as a marker of successful protein expression. The transfection was performed using Lipofectamine 2000 (Invitrogen, ThermoFisher, Carlsbad, CA, USA) using the fabricant protocol. The plasmids used to express GlyRs and GABAARs have been previously described. To track the successful expression of GlyR β subunits and the GABAA γ2 or β2 subunit, these proteins were subcloned in the pIRES2-EGFP vector. The transfection ratio to obtain β-containing GlyRs was 1:5 of α:β, while the expression of γ2-containing GABAA receptors was 1:2:5 of α:β:γ2 [14, 15]. Chimeric GlyRs were described in a previous report. Site directed mutagenesis was performed by Charm Gene Science Mutagenex LLC. (Cumming, GA, USA). All the constructs were checked by full-length sequencing (SNPSaurus, Eugene, OR, USA).
In brief, patch electrodes (3–4 MΩ) were pulled from borosilicate glasses in a PC-100 puller (Narishige, Tokyo, Japan); then, they were filled with an intracellular solution, which contained (in mM) 120 CsCl, 8 EGTA, 10 HEPES (pH 7.4), 4 MgCl2, 0.5 GTP, and 2 ATP. The extracellular solution contained (in mM) 140 NaCl, 5.4 KCl, 2.0 CaCl2, 1.0 MgCl2, 10 HEPES (pH 7.4), and 10 glucose. Whole-cell patch-clamp recordings were performed at −60 mV with an Axoclamp 200B (Molecular Devices, Sunnyvale, CA, USA) or with HEKA EPC-10 (HEKA Elektronik GmbH, Reutlingen, Germany) amplifiers. […] Brief (3–5 s) pulses of agonist together with alkaloids were applied to cells. Stock solutions of the alkaloids were prepared in high purity distilled water. Aliquots of these stock solutions were diluted in reservoirs containing extracellular solution. […] The concentration–response curve parameters for the alkaloid inhibition (IC50, nH, and the maximal current inhibition) were obtained from the fitted curve of normalized concentration–response data points to the equation Iagonist = Imax (agonist)nH/((agonist)nH + (EC50)nH). The IC50 curves are best-fit mean ± SE from pooled data. […] The inhibition constant (Ki) was calculated using the Cheng–Prusoff equation (Ki = IC50/((2 + ([Agonist]/EC50)^nH)^1/nH − 1). The concentration of agonist corresponds to the sub-saturating agonist concentration used to obtain the IC50 for each alkaloid on a given GlyR subtype.

Row | SMILES | modulation of currents (in words) (α1 GlyR) | modulation of currents (in words) (α2 GlyR) | modulation of currents (in words) (α3 GlyR) | IC50 (Spinal GlyRs) [µM] | IC50 [1] [µM] | IC50 (native GlyRs) [µM] | IC50 (α1β GlyR) [µM] | nH (α1β GlyR; Hill coefficient of inhibition curve) | Maximal Modulation (α1β GlyR; percentage change of glycine-evoked current) [%]
1 | C=C[C@]12CN(C)[C@@H]3[C@H]4CO[C@H](C[C@H]41)[C@]1(C(=O)Nc4ccccc41)[C@@H]32 [gelsemine] | bell-shape modulation | concentration-dependent inhibition | concentration-dependent inhibition | ~42 | 55 to 75 | ~40 | – | – | –
2 | C=C[C@@]12CN(C)[C@H]3C[C@]14C(=Nc1ccccc14)[C@H]1C[C@@H]2[C@@H]3CO1 [koumine] | – | – | – | – | – | – | 32.5 ± 13.2 | 0.9 ± 0.5 | −90.8 ± 2.3

— PMC10970644, “Molecular Pharmacology of Gelsemium Alkaloids on Inhibitory Receptors” (International Journal of Molecular Sciences, 2024)
